This assay concerns the target PI3Kδ (p110δ/p85α) (Homo sapiens (Human), UniProt O00329). Description: Example A3: PI3Kδ scintillation proximity assay. The format is biochemical. As to conditions: scintillation proximity assay, 20 μM ATP, 4 nM PI3Kδ; read-out: PI3Kδ SPA IC50. Summed up: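 p110δ/p85α (4 nM) phosphorylated 20 μM PIP2 with 20 μM ATP plus [γ-33P]ATP in MOPS pH 6.7, MgCl2, DTT, CHAPS, 0.5% DMSO, at RT. Stopped with EDTA/excess ATP, product captured on WGA SPA beads overnight and counted; IC50 from percent control activity versus log inhibitor.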

Data on 11 compounds can be found in patent publication US10092570B2 (Incyte Corporation, priority 2011, dated 2018).

Counter-ions that a name gives are not always drawn.

PI3Kδ (p110δ/p85α), sequence (O00329 whole entry): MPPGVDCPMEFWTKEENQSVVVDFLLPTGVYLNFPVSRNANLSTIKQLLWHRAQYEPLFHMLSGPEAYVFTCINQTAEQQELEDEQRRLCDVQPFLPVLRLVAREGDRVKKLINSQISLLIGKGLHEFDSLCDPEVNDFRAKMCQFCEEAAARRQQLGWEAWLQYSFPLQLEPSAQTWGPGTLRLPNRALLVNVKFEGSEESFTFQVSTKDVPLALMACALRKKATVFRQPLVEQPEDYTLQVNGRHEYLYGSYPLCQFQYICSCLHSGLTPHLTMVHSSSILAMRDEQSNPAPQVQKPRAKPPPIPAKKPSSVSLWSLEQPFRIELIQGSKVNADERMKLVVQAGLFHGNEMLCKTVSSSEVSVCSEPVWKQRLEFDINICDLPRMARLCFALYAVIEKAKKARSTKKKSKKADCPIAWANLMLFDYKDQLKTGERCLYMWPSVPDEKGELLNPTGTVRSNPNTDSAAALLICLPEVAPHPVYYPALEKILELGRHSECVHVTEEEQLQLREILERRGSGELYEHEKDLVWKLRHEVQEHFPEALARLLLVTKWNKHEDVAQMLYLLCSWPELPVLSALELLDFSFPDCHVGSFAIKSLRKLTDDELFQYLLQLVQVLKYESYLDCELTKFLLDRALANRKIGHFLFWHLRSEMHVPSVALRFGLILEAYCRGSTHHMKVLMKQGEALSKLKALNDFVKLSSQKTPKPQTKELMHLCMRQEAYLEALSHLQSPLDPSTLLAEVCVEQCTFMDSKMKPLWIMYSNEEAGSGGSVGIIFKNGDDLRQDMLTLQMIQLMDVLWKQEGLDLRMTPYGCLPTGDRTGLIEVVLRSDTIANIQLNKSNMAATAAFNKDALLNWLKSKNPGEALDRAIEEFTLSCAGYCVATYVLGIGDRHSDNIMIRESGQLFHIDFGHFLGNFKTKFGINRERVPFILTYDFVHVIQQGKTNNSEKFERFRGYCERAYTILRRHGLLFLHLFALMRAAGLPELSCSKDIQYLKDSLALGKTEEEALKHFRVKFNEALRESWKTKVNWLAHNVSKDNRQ
PI3Kδ (p110δ/p85α), sequence (P27986 whole entry partner): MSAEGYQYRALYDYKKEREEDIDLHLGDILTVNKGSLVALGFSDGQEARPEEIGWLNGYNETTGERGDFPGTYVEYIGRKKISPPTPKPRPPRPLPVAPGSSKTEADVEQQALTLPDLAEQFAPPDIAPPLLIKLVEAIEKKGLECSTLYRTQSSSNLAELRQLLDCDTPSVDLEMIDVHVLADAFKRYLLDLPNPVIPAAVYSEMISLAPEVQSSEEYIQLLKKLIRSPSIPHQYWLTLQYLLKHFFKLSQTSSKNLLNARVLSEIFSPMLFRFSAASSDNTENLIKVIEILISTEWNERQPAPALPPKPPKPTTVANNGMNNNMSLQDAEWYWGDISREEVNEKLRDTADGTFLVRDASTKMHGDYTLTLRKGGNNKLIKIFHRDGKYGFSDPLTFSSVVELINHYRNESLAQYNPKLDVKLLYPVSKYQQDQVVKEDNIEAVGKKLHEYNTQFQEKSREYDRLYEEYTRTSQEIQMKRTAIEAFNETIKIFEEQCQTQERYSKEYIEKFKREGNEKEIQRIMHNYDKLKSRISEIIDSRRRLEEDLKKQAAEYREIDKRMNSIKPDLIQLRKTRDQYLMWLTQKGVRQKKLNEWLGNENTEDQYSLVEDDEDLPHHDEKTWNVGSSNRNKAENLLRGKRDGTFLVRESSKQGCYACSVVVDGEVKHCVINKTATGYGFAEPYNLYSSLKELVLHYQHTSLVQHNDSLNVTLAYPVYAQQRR

The IC50 is the concentration that gives 50% inhibition. `COc1c(C(C)n2nc(C)c3c(N)ncnc32)cc(Cl)c(C)c1C1CN(C2(CC#N)CCC2)C1` (single isomer, unassigned) [Example 161, [1-(3-{3-[1-(4-Amino-3-methyl-1H-pyrazolo[3,4-d]pyrimidin-1-yl)ethyl]-5-chloro-2-methoxy-6-methylphenyl}azetidin-1-yl)cyclobutyl]acetonitrile]: the IC50 was under 10 nM.

With `CCOc1c(C(C)n2nc(C)c3c(N)ncnc32)cc(Cl)c(C#N)c1C1CN(CC#N)C1` (single isomer, unassigned) [Example 235, 4-[1-(4-Amino-3-methyl-1H-pyrazolo[3,4-d]pyrimidin-1-yl)ethyl]-6-chloro-2-[1-(cyanomethyl)azetidin-3-yl]-3-ethoxybenzonitrile], the IC50 is under 10 nM.

For `COc1c(C(C)n2nc(C)c3c(N)ncnc32)cc(Cl)c(C)c1C1CN(C(C)=O)C1` (centres unmarked) [Example 2, 1-{1-[3-(1-Acetylazetidin-3-yl)-5-chloro-2-methoxy-4-methylphenyl]ethyl}-3-methyl-1H-pyrazolo[3,4-d]pyrimidin-4-amine trifluoroacetate], the IC50 was under 10 nM.

In the case of `COc1c(C(C)n2cc(-c3cn[nH]c3)c(=O)c3c(N)ncnc32)cc(Cl)c(C)c1-c1ccc(C(=O)N(C)C)nc1` (centres unmarked) [Example 359, 5-(3-{1-[4-Amino-5-oxo-6-(1H-pyrazol-4-yl)pyrido[2,3-d]pyrimidin-8(5H)-yl]ethyl}-5-chloro-2-methoxy-6-methylphenyl)-N,N-dimethylpyridine-2-carboxamide], the IC50 was under 10 nM.

Take `CCOc1c(C(C)n2nc(C)c3c(N)ncnc32)cc(Cl)c(C#N)c1C1CN(CC2CC2)C1` (single isomer, unassigned) [Example 217, 4-[1-(4-Amino-3-methyl-1H-pyrazolo[3,4-d]pyrimidin-1-yl)ethyl]-6-chloro-2-[1-(cyclopropylmethyl)azetidin-3-yl]-3-ethoxybenzonitrile]: the IC50 was under 10 nM.

On to `CCOc1c(C(C)n2nc(C(F)F)c3c(N)ncnc32)cc(Cl)c(C)c1-c1ccc(C(=O)N(C)C)nc1` (racemic) [Example 82, 5-(3-{1-[4-Amino-3-(difluoromethyl)-1H-pyrazolo[3,4-d]pyrimidin-1-yl]ethyl}-5-chloro-2-ethoxy-6-methylphenyl)-N,N-dimethylpyridine-2-carboxamide bis(trifluoroacetate)], for which the IC50 is under 10 nM.

Turning to `CCOc1c(C(C)n2nc(C)c3c(N)ncnc32)cc(Cl)c(C)c1-c1ccnc(C(=O)N(C)C)c1` (single isomer, unassigned) [Example 201], the IC50 was under 10 nM.

Consider `COc1c(C(C)n2nc(C)c3c(N)ncnc32)cc(Cl)c(C)c1C1CCN(CC(C)(C)O)CC1` (racemic) [Example 164, 1-(4-{3-[1-(4-Amino-3-methyl-1H-pyrazolo[3,4-d]pyrimidin-1-yl)ethyl]-5-chloro-2-methoxy-6-methylphenyl}piperidin-1-yl)-2-methylpropan-2-ol], for which the IC50 was under 10 nM.

Regarding `CCOc1c(C(C)n2nc(C)c3c(N)ncnc32)cc(Cl)c(F)c1C1CN(C[C@H](C)O)C1` (stereo partly drawn) [Example 143, (2S)-1-(3-{3-[1-(4-Amino-3-methyl-1H-pyrazolo[3,4-d]pyrimidin-1-yl)ethyl]-5-chloro-2-ethoxy-6-fluorophenyl}azetidin-1-yl)propan-2-ol], the IC50 is under 10 nM.

In the case of `COc1c(C(C)n2nc(C(F)F)c3c(N)ncnc32)cc(C#N)c(C)c1C1CN(CC(F)F)C1` (racemic) [Example 136, 5-{1-[4-Amino-3-(difluoromethyl)-1H-pyrazolo[3,4-d]pyrimidin-1-yl]ethyl}-3-[1-(2,2-difluoroethyl)azetidin-3-yl]-4-methoxy-2-methylbenzonitrile], the IC50 was under 10 nM.

Turning to “4-[1-(4-Amino-3-methyl-1H-pyrazolo[3,4-d]pyrimidin-1-yl)ethyl]-6-chloro-2-[1-(2-hydroxyethyl)azetidin-3-yl]-3-methoxybenzonitrile-d4 [Example 297]”, the IC50 was under 10 nM.
